Results from patent US12297171B2, “EP2 antagonist compounds” (Reservoir Neuroscience, Inc., priority 2021, dated 2025).
pIC50: −log10 of the molar value.

What was measured:
[1] = Human hepatocyte stability; format: in vitro ADME; conditions: human hepatocytes 0.5×10^6 cells/mL, 120 minutes; for half-life at 1 μM: read-out: T1/2 (hepatic); for microsomal CLint at 1 μM: read-out: in vitro CLint (hepatic)
Protocol: The tested compound was incubated in duplicate with incubation media (Williams' Medium E with 1× GlutaMAX) containing human hepatocytes (0.5×10^6 cells/mL). These incubations were carried out at a final test concentration of 1 μM over a total incubation period of 120 minutes. Samples were taken at 0, 15, 30, 60, 90 and 120 min and the reaction was terminated by addition of acetonitrile containing internal standard (100 nM alprazolam, 200 nM labetalol, 200 nM caffeine and 200 nM diclofenac). Verapamil was used as the positive control in this study. The samples were analyzed by UPLC-MS/MS to determine the concentration of the tested compound and the percentage remaining, intrinsic clearance (in vitro CLint) and half-life (t1/2) values were calculated.
(§1) Chromatographic analyses were performed on a Shimadzu UPLC apparatus (Kyoto, Japan) consisting of a gradient pump (model LC-30AD), an automatic injector (model HTC PAL System) and an on-line degasser (model DGU-20A5R). Detection was a triple quadrupole tandem mass spectrometer equipped with a turbo ion spray interface (API 4000/Triple Quad 4500/Triple Quad 5500/Triple Quad 6500). Data acquisition and integration were carried out with LC-MS software (Analyst 1.6) linked directly to the LC-MS/MS system. Chromatographic separations were achieved on a XSelect Hss T3 2.5μ (2.1×30 mm) Column. The mobile phase was 0.1% formic acid in water (A) and 0.1% formic acid in acetonitrile (B). The flow rate was 1.0 mL/min and column was maintained at 40° C.
(§2) Half-life (T1/2) data is measured in minutes, and in Table B2, in both microsomal and hepatic assays, the data is grouped into categories of: • A T1/2=1000+ • B T1/2=500 to 1000 • C T1/2=100 to 500 • D T1/2<100
(§3) In vitro clearance (CLint) data is measured in μL/min/mg prot, and in Table B2, in both microsomal and hepatic assays, the data is grouped into categories of: • A CLint<1 • B CLint=1 to 10 • C CLint=10 to 20 • D CLint=20+

[2] = molecular target: T1, EP2 receptor (Homo sapiens, UniProt P43116); experiment: EP2 potency assay (cAMP TR-FRET, LANCE Ultra cAMP kit, antagonism of prostaglandin E2 at EC80); format: cell-based; conditions: CHO-K1 cells transfected with EP2 receptor
T1 construct: expressed in transfected cells; host or cells: CHO-K1 cells (ATCC), transiently transfected with FuGENE 6
T1 sequence (P43116 whole entry): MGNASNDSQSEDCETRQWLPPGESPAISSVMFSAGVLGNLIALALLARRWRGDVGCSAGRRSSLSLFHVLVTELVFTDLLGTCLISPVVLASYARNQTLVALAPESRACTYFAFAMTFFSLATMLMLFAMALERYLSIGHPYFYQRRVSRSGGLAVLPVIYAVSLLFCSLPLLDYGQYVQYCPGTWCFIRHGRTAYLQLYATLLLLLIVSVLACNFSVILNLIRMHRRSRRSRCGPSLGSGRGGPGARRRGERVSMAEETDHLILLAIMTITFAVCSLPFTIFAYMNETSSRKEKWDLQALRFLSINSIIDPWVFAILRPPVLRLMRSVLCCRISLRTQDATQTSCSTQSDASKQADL
Protocol: Compound potency was measured using a cAMP TR-FRET assay.
CHO-K1 cells (ATCC) were seeded at a density of 9.75×10^5 in 6 cm plates, and then on the following day cell media was changed to Opti-Mem I reduced serum media (Gibco), and transfected with a plasmid for expression of the EP2 receptor (the target receptor of interest), using the FuGENE 6 Transfection reagent (Promega). After 6 hours incubation, the cell media was replaced with F12 medium supplemented with 10% FBS and 100 U/ml Pen-Strep. 24 hours after transfection, cells were harvested and seeded at a density of 3000 cells/well in a 384 well plate to perform the cAMP assay, using the LANCE Ultra cAMP assay kit (PerkinElmer).
For each test compound of interest, 10 nl/well of serially diluted test compound was added to each well, resulting in a range of 10 serially diluted compound concentrations from 10000 nM to 0.038 nM, with duplicate wells for each concentration. Plates were then centrifuged at 1000 rpm for 1 min, agitated at 600 rpm at R.T. for 2 min, and incubated at 25° C. for 5 min. The reference agonist, prostaglandin E2 (MCE), was added to each well at the appropriate concentration to reach its EC80 value. Plates were then centrifuged at 1000 rpm for 1 min, agitated at 600 rpm at R.T. for 2 min, and incubated at 25° C. for 30 min.
To measure levels of cAMP, 5 μl/well of Eu-cAMP working solution and 5 μl/well of Ulight-anti-cAMP working solution were added to each well, and plate was centrifuged at 1000 rpm for 1 min, agitated at 600 rpm at R.T. for 2 min, and incubated at 25° C. for 15 min. Levels of TR-FRET fluorescence were measured in each well using an EnVision microplate reader (excitation wavelength=337 nm and emission wavelength=615 and 665 nm). A dose-response curve was prepared by plotting percent inhibition for each compound concentration, and then IC50 was calculated by fitting a curve to the plotted values and extrapolating the IC50 concentration.
Potency data is grouped into categories of AA (IC50<100 nM); A (IC50=100 to 500 nM); B (IC50=500 nM to 1 μM); C (IC50=1 μM to 5 μM); and D (IC50>5 μM).

[3] = Human liver microsome stability; format: in vitro ADME; conditions: human liver microsomes 0.5 mg/mL, 37° C., 60 minutes; for half-life at 2 μM: read-out: T1/2 (microsomal); for microsomal CLint at 2 μM: read-out: in vitro CLint (microsomal)
Protocol: The tested compound was incubated in duplicate with human liver microsomes (0.5 mg/mL) at 37° C. These incubations were carried out at a final test article concentration of 2 μM over a total incubation period of 60 minutes. Samples were taken at 0, 15, 30, 45 and 60 min and the reaction terminated by addition of 4 volumes of acetonitrile containing internal standard (100 nM alprazolam, 200 nM imipramine, 200 nM labetalol and 2 μM ketoprofen). Diclofenac was used as a positive control in this study. The samples were analyzed by UPLC-MS/MS to determine the concentration of the test compound and the percent remaining, intrinsic clearance (in vitro CLint) and half-life (t1/2) values were calculated.
as §1, §2, §3

Row | half-life at 1 μM [1] [h] | microsomal CLint at 1 μM [1] [µL/min/mg] | pIC50 [2] | half-life at 2 μM [3] [h] | microsomal CLint at 2 μM [3] [µL/min/mg] | Structure (SMILES)
1 | 8.33 to 16.7 | 1 to 10 | 6.30 to 7.00 | 1.67 to 8.33 | 1 to 10 | COc1ccc(C(=O)N2CCC(COc3ccc(-c4ccc(C#N)cc4)cc3)(C(=O)NS(=O)(=O)C(F)(F)F)C2)cc1 (centres unmarked) [Compound 4-24, 3-[({4′-cyano-[1,1′-biphenyl]-4-yl}oxy)methyl]-1-(4-methoxybenzoyl)-N-trifluoromethanesulfonylpyrrolidine-3-carboxamide]
2 | > 16.7 | < 1 | > 7.00 | > 16.7 | < 1 | COc1ccc(C(=O)N2CCC(COc3ccc(-c4ccc(C#N)cc4)cc3)(C(=O)NS(C)(=O)=O)C2)cc1 (centres unmarked) [Compound 4-19, 3-(((4′-cyano-[1,1′-biphenyl]-4-yl)oxy)methyl)-1-(4-methoxybenzoyl)-N-(methylsulfonyl)pyrrolidine-3-carboxamide]
3 | 1.67 to 8.33 | 1 to 10 | – | 8.33 to 16.7 | 1 to 10 | COc1ccc(C(=O)N2CCC(COc3ccc(-c4ccc(C#N)cc4)cc3)(C(=O)O)C2)cc1 (centres unmarked) [Ref, reference compound]
